# According to PMC7311426, “An amphipathic peptide with antibiotic activity against multidrug-resistant Gram-negative bacteria” (Nature Communications, 2020):
# Test system: P. aeruginosa
# Assay: microbe, parasite or virus in culture
# How it was run: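 MICs were scored by eye after 18-20 h static incubation at 37 °C, with bacteria at 5 × 10^5 CFU mL^−1 in MHB. Peptides were serially diluted 2-fold over 12 points, top 128 or 64 μg mL^−1. CAMHB (CLSI) and 1% agarose-MHB variants were also run, at least six replicates.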
compound,measurement,setting,value
NC[C@H]1O[C@H](O[C@H]2[C@H](O)[C@@H](O[C@H]3O[C@H](CO)[C@@H](O)[C@H](N)[C@H]3O)[C@H](N)C[C@@H]2N)[C@H](N)C[C@@H]1O [TOB],"MIC, broth microdilution",P. aeruginosa ATCC 27853 parent strain not exposed to drug,0.5 µg/mL
same,"MIC, broth microdilution","P. aeruginosa ATCC 27853 spontaneous mutant, AA139 selection 4X, plate 1, colony 1, drug-free passage 1",1 µg/mL
same,"MIC, broth microdilution","P. aeruginosa ATCC 27853 spontaneous mutant, AA139 selection 4X, plate 1, colony 1, drug-free passage 5",0.5 µg/mL
same,"MIC, broth microdilution","P. aeruginosa ATCC 27853 spontaneous mutant, AA139 selection 4X, plate 1, colony 2, drug-free passage 1","0.5, 0.5 µg/mL"
same,"MIC, broth microdilution","P. aeruginosa ATCC 27853 spontaneous mutant, AA139 selection 4X, plate 1, colony 2, drug-free passage 5","0.5, 0.5 µg/mL"
same,"MIC, broth microdilution","P. aeruginosa ATCC 27853 spontaneous mutant, AA139 selection 4X, plate 1, colony 3, drug-free passage 1","0.5, 0.5 µg/mL"
same,"MIC, broth microdilution","P. aeruginosa ATCC 27853 spontaneous mutant, AA139 selection 4X, plate 1, colony 3, drug-free passage 5","0.5, 0.5 µg/mL"
same,"MIC, broth microdilution","P. aeruginosa ATCC 27853 spontaneous mutant, AA139 selection 4X, plate 1, colony 4, drug-free passage 1","0.5, 0.5 µg/mL"
same,"MIC, broth microdilution","P. aeruginosa ATCC 27853 spontaneous mutant, AA139 selection 4X, plate 1, colony 4, drug-free passage 5","0.5, 0.5 µg/mL"
same,"MIC, broth microdilution","P. aeruginosa ATCC 27853 spontaneous mutant, AA139 selection 4X, plate 1, colony 5, drug-free passage 1",1 µg/mL
same,"MIC, broth microdilution","P. aeruginosa ATCC 27853 spontaneous mutant, AA139 selection 4X, plate 1, colony 5, drug-free passage 5",0.5 µg/mL
same,"MIC, broth microdilution","P. aeruginosa ATCC 27853 spontaneous mutant, AA139 selection 4X, plate 1, colony 6, drug-free passage 1",1 µg/mL
same,"MIC, broth microdilution","P. aeruginosa ATCC 27853 spontaneous mutant, AA139 selection 4X, plate 1, colony 6, drug-free passage 5",0.5 µg/mL
same,"MIC, broth microdilution","P. aeruginosa ATCC 27853 spontaneous mutant, AA139 selection 4X, plate 2, colony 1, drug-free passage 1","0.5, 0.5 µg/mL"
same,"MIC, broth microdilution","P. aeruginosa ATCC 27853 spontaneous mutant, AA139 selection 4X, plate 2, colony 1, drug-free passage 5","0.5, 0.5 µg/mL"
same,"MIC, broth microdilution","P. aeruginosa ATCC 27853 spontaneous mutant, AA139 selection 4X, plate 2, colony 2, drug-free passage 1","0.5, 0.5 µg/mL"
same,"MIC, broth microdilution","P. aeruginosa ATCC 27853 spontaneous mutant, AA139 selection 4X, plate 2, colony 2, drug-free passage 5","0.5, 0.5 µg/mL"
same,"MIC, broth microdilution","P. aeruginosa ATCC 27853 spontaneous mutant, AA139 selection 4X, plate 2, colony 3, drug-free passage 1",1 µg/mL
same,"MIC, broth microdilution","P. aeruginosa ATCC 27853 spontaneous mutant, AA139 selection 4X, plate 2, colony 3, drug-free passage 5",0.5 µg/mL
same,"MIC, broth microdilution","P. aeruginosa ATCC 27853 spontaneous mutant, AA139 selection 4X, plate 2, colony 4, drug-free passage 1",1 µg/mL
same,"MIC, broth microdilution","P. aeruginosa ATCC 27853 spontaneous mutant, AA139 selection 4X, plate 2, colony 4, drug-free passage 5",0.5 µg/mL
same,"MIC, broth microdilution","P. aeruginosa ATCC 27853 spontaneous mutant, AA139 selection 8X, plate 1, colony 1, drug-free passage 1",1 µg/mL
same,"MIC, broth microdilution","P. aeruginosa ATCC 27853 spontaneous mutant, AA139 selection 8X, plate 1, colony 1, drug-free passage 5",0.5 µg/mL
same,"MIC, broth microdilution","P. aeruginosa ATCC 27853 spontaneous mutant, AA139 selection 8X, plate 1, colony 2, drug-free passage 1",1 µg/mL
same,"MIC, broth microdilution","P. aeruginosa ATCC 27853 spontaneous mutant, AA139 selection 8X, plate 1, colony 2, drug-free passage 5",0.5 µg/mL
same,"MIC, broth microdilution","P. aeruginosa ATCC 27853 spontaneous mutant, AA139 selection 8X, plate 1, colony 3, drug-free passage 1",1 µg/mL
same,"MIC, broth microdilution","P. aeruginosa ATCC 27853 spontaneous mutant, AA139 selection 8X, plate 1, colony 3, drug-free passage 5",0.5 µg/mL
same,"MIC, broth microdilution","P. aeruginosa ATCC 27853 spontaneous mutant, AA139 selection 8X, plate 1, colony 4, drug-free passage 1",1 µg/mL
same,"MIC, broth microdilution","P. aeruginosa ATCC 27853 spontaneous mutant, AA139 selection 8X, plate 1, colony 4, drug-free passage 5",0.5 µg/mL
same,"MIC, broth microdilution","P. aeruginosa ATCC 27853 spontaneous mutant, AA139 selection 8X, plate 1, colony 5, drug-free passage 1","0.5, 0.5 µg/mL"
same,"MIC, broth microdilution","P. aeruginosa ATCC 27853 spontaneous mutant, AA139 selection 8X, plate 1, colony 5, drug-free passage 5","0.5, 0.5 µg/mL"
same,"MIC, broth microdilution",P. aeruginosa UNT 138-1 parent strain not exposed to drug,0.5 µg/mL
same,"MIC, broth microdilution","P. aeruginosa UNT 138-1 spontaneous mutant, AA139 selection 4X, plate 1, colony 1, drug-free passage 1","1, 1 µg/mL"
same,"MIC, broth microdilution","P. aeruginosa UNT 138-1 spontaneous mutant, AA139 selection 4X, plate 1, colony 1, drug-free passage 5","1, 1 µg/mL"
same,"MIC, broth microdilution","P. aeruginosa UNT 138-1 spontaneous mutant, AA139 selection 4X, plate 1, colony 2, drug-free passage 1","0.5, 0.5 µg/mL"
same,"MIC, broth microdilution","P. aeruginosa UNT 138-1 spontaneous mutant, AA139 selection 4X, plate 1, colony 2, drug-free passage 5","0.5, 0.5 µg/mL"
same,"MIC, broth microdilution","P. aeruginosa UNT 138-1 spontaneous mutant, AA139 selection 4X, plate 1, colony 3, drug-free passage 1",1 µg/mL
same,"MIC, broth microdilution","P. aeruginosa UNT 138-1 spontaneous mutant, AA139 selection 4X, plate 1, colony 3, drug-free passage 5",0.5 µg/mL
same,"MIC, broth microdilution","P. aeruginosa UNT 138-1 spontaneous mutant, AA139 selection 4X, plate 1, colony 4, drug-free passage 1","0.5, 0.5 µg/mL"
same,"MIC, broth microdilution","P. aeruginosa UNT 138-1 spontaneous mutant, AA139 selection 4X, plate 1, colony 4, drug-free passage 5","0.5, 0.5 µg/mL"
same,"MIC, broth microdilution","P. aeruginosa UNT 138-1 spontaneous mutant, AA139 selection 4X, plate 1, colony 5, drug-free passage 1",1 µg/mL
